One assay deals with T1, mCCR9 (Mus musculus, UniProt Q9WUT7).
T1 construct: endogenous in cells; host or cells: mouse thymocytes (from the earlier reading's assay name)
T1 sequence (Q9WUT7 1-369): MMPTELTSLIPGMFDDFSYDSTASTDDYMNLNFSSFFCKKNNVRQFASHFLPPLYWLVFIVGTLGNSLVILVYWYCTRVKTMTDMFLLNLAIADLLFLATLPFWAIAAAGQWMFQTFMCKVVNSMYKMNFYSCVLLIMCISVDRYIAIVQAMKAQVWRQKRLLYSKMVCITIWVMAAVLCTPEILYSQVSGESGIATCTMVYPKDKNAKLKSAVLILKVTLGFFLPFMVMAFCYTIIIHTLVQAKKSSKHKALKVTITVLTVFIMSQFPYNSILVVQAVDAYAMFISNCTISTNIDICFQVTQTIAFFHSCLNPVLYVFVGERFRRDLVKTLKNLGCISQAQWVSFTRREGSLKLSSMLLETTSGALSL
Description: Chemotaxis of mouse thymocytes to mCCL25. The assay is classed as cell-based. As to conditions: in serum; unit inferred.

For another assay, the target named is T2, mCCR1 (Mus musculus, UniProt P51675).
T2 construct: endogenous in cells; host or cells: mouse WEHI-274.1 cells (from the earlier reading's assay name)
T2 sequence (P51675 1-355): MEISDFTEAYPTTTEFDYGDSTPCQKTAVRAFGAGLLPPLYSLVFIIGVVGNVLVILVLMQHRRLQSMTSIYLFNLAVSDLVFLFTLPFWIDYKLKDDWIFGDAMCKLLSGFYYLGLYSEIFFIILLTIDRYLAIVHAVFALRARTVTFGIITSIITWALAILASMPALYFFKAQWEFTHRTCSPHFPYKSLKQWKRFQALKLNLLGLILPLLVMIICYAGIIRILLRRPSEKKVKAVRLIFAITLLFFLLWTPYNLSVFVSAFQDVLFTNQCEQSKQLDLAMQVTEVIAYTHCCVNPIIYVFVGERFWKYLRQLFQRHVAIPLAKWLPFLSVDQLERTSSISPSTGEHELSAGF
Description: Chemotaxis of mouse WEHI-274.1 cells to mCCL3. The assay is classed as cell-based. As to conditions: in serum; unit inferred.

In another assay the target is T3, mCCR6 (Mus musculus, UniProt O54689).
T3 construct: expressed in transfected cells; host or cells: BaF3 cells
T3 sequence (O54689 1-367): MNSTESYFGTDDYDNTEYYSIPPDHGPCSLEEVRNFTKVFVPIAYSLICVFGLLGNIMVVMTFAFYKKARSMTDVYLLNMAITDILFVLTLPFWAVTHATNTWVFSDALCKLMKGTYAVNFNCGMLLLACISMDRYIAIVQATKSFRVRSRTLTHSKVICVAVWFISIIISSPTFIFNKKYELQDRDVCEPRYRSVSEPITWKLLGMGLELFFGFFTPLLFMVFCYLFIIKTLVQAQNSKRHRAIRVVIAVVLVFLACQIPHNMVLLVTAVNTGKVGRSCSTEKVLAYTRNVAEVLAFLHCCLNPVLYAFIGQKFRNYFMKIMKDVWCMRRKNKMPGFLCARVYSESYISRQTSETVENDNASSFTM
Nature of the assay: In vitro inhibition of chemotaxis, mCCR6-transfected BaF3 cells to mCCL20. As to conditions: in 100% serum. The format is cell-based. Here is the method: For in vitro determination of chemokine receptor inhibitor activity, Compound 1.136 was dissolved in DMSO to generate a stock concentration of 10 mM that was further diluted in chemotaxis migration buffer (HBSS, 1% BSA, 1% HEPES) to create a 10-point inhibitor gradient ranging from 100 nM-0.01 nM. Migration assay was then run in 100% mouse serum in response to rmCCL20 for CCR6 activity or rmCXCL1 for CXCR2 activity using ChemoTx plates (Neuroprobe, Gaithersburg Md.) and assessed by fluorescence staining of migrated cells with CyQuant (Thermo Fisher).

In the next assay the target is T4, mCCR5 (Mus musculus, UniProt P51682).
T4 construct: expressed in transfected cells; host or cells: BaF3 cells (from the earlier reading's assay name)
Description: Chemotaxis of mCCR5-transfected BaF3 cells to mCCL5. The format is cell-based. As to conditions: in serum; unit inferred.

For the next assay, the target named is T5, mCCR2 (Mus musculus, UniProt P51683).
T5 construct: endogenous in cells; host or cells: mouse bone marrow cells (from the earlier reading's assay name)
Nature of the assay: Chemotaxis of mouse bone marrow cells to mCCL2. Conditions: in serum; unit inferred. The format is cell-based.

In assay [1] the test system is CD4 T cells, neutrophils and inflammatory dendritic cells within IL-36-treated skin. Description: Flow cytometry of leukocytes accumulating in IL-36-treated skin. The format is in vivo, mouse. As to conditions: after 4 daily IL-36α ear injections; Compound 1.136 90 mg/kg/day s.c.; α-IL-17RA 200 μg/mouse/day i.p.; 90 mg/kg/day. On the procedure:
For in vivo dosing, mice were dosed subcutaneously with Compound 1.136 once daily (s.c. q.d. in 1% HPMC) at 90 mg/kg unless stated otherwise, starting at day 0 of a study. The in vivo dose was predicted based on in vitro potency and the pharmacokinetic response to a single dose in mice. The minimum antagonist concentration (at trough) to fully cover a gradient-sensing chemoattractant receptor has been determined to correspond with the IC90 concentration (Schall, T. J., and A. E. Proudfoot. 2011. Overcoming hurdles in developing successful drugs targeting chemokine receptors. Nat Rev Immunol 11: 355-363).
Flow cytometry of leukocytes. Ears or excised skin samples were digested in collagenase A and 1 U/ml DNAse I with agitation for 30 min at 37° C. Cells were then dislodged from skin, filtered through a […] sieve, washed and re-suspended in FACS buffer (PBS with 10% FBS) for analysis.
Directly conjugated Monoclonal antibodies were from R&D Systems (Minneapolis, Minn.), BioLegend (San Diego, Calif.), or eBioscience/ThermoFisher (San Diego, Calif.). CD45.2 (104) in AlexaFluor488, Ly6C (HK1.4) in PE, CD90.2 (30-H12) in Per CP-Cy5.5, TCRVγ4 (UC3-10A6) in PE-Cy7, TCRβ (H57-597) in APC, CD4 (GK1.5) in APC-eFluor-780, TCRγδ (GL3) in BV-421, LIVE/DEAD fixable Aqua stain (Molecular Probes, Eugene, Oreg.), CD11c (N418) in BV650, Ly6G (1A4) in BV711 and CD11b (M1/70) in BV785. Flow cytometry data were acquired with a Fortessa (BD Biosciences) cytometer and analyzed using FlowJo v10.2

A further assay concerns the target T6, mCXCR4 (Mus musculus, UniProt P70658).
T6 construct: endogenous in cells; host or cells: mouse BaF3-WT cells (from the earlier reading's assay name)
Description: Chemotaxis of mouse BaF3-WT to mCXCL12. The format is cell-based. Conditions: in serum; unit inferred.

≈ marks a conversion by molar mass, not a printed value. Entries after “also recorded” stand apart in the source; their conditions may differ. A value given as a limit tells only on which side of the number the result lay.

T5 sequence (P51683 whole entry): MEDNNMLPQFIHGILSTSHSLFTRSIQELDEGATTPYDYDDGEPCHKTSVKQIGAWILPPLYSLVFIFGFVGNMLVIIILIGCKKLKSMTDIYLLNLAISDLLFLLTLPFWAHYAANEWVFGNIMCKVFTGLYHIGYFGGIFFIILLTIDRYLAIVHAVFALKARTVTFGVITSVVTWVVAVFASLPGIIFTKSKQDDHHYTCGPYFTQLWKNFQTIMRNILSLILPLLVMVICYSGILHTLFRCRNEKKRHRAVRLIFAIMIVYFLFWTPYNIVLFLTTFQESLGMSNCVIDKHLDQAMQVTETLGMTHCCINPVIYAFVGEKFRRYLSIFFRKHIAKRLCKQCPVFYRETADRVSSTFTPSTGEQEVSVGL
T6 sequence (P70658 whole entry): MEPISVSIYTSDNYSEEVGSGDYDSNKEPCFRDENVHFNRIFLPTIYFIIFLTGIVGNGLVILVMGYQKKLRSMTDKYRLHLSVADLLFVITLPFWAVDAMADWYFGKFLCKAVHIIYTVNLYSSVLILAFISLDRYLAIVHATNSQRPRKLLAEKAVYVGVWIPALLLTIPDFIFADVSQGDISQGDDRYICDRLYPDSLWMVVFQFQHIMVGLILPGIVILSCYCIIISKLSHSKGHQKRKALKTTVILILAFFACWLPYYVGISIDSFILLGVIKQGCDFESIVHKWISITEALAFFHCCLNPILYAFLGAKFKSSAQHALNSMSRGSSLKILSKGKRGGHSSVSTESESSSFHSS
T4 sequence (P51682 whole entry): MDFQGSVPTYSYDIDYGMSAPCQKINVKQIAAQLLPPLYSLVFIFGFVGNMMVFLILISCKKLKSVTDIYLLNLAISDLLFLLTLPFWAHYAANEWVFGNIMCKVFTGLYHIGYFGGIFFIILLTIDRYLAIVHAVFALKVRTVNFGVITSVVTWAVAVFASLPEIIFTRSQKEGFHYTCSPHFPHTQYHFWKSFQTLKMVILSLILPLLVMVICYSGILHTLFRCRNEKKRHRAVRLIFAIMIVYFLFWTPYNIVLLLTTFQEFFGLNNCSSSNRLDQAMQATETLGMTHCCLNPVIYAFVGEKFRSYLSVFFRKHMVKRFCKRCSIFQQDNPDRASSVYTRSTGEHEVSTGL

By IC50 is commonly meant the midpoint of a concentration-inhibition curve. What is called IC90 is the concentration needed for an effect of 90%. `CCC(C)(C)[C@@H](Nc1c(Nc2c(F)ccc3c2C(=O)N[C@H]3C)c(=O)c1=O)c1ccc(C)o1` [Compound 1.136]: the IC50 on mCCR9 is more than 10 µM; against mCCR1, more than 10 µM; at mCCR6 (read-out: IC50 on mouse CCR6, in vitro inhibition of chemotaxis), 0.01 µM; against mCCR5, more than 10 µM; against mCCR2, more than 10 µM; against mCXCR4, more than 10 µM. Also, the concentration for an effect of 90% (IC90) on mCCR6 (BaF3, read-out: IC90 for CCR6 inhibition) was found to be 0.045 µg/mL (≈ 0.102 µM). The “Accumulation of CD4+ T cells within IL-36-treated skin” value in assay [1] was “significantly reduced the accumulation; also recorded: significantly reduces accumulation”. The “Accumulation of inflammatory dendritic cells (iDC) within IL-36-treated skin” value in assay [1] was “significantly reduced the accumulation; also recorded: significantly reduces accumulation”. For the same compound, the “Accumulation of neutrophils within IL-36-treated skin” value in assay [1] was “significantly reduced the accumulation; also recorded: significantly reduces accumulation”.

The values above are taken from US11684606B2, “Methods of treating generalized pustular psoriasis with an antagonist of CCR6 or CXCR2” (CHEMOCENTRYX, INC., priority 2018, dated 2023).
